Measured values from patent EP2664616A1, “Hydantoin and thiohydantoin derivatives as antiviral drugs” (priority 2012, dated 2013).
pEC50: −log10 of the molar value.

System: HCV replicon Luc Neo ET
Assay: HCV replication inhibition assay (replicon assay, luciferase reporter)
Format: cell-based
Conditions: Hepatitis C virus; Huh-7 cell lines containing HCV replicon Luc Neo ET; 72 hours with compound; 1 % DMSO; firefly luciferase reporter; concentration that produces 50 % of replication inhibition; read-out: EC50 Replicon LucneoET
Description: The compounds according to the present invention were tested for their ability to inhibit HCV replication as follows:
Huh-7 cell lines containing HCV replicon Luc Neo ET (Reblikon) were maintained in DMEM supplemented with 10% SVF, 2 mM glutamine, and 1 X NEAA, 100 U / ml penicillin, and 100 µg / ml streptomycine. Cells were maintained in medium supplemented with 0.5 mg/ml G418, at 37°C and 5% CO2 in a humidified atmosphere. Cells were dissociated at sub confluence with trypsin EDTA 1X.
Replicon Luc Neo ET is bicistronic expression constructs (Lohmann et al, 1999, Science 285, 110-113). In brief, the structural genes of the HCV genome were replaced by heterologous sequences; the gene encoding the neomycin phosphotransferase (NPT) and the internal ribosome entry site (IRES) of the encephalomyocarditis virus (EMCV). The bicistronic construct is therefore composed of the following elements: HCV-IRES nucleotides 1-389 for Luc Neo ET, the NPT gene, the EMCV-IRES directing translation of downstream HCV sequences from NS2 or NS3 up to the authentic 3' end of the genome. HCV Polyprotein of Luc Neo ET replicon harbours the cell culture adaptive mutations E1202G, T1280I, K1846T. G418-resistance is only possible with cells containing high amounts of replicon.
Cells were dissociated the day before addition of compounds and seeded in 96 well-plates at a final concentration of 27 777.77 cells.ml^-1.cm^-2 in 90µl final volume of culture medium per well and were maintained at 37°C and 5% CO2 in a humidified atmosphere for 24 hours. 10 µl of compounds to be tested were added 24 hours after seeding. Final concentration of DMSO was 1 %. Cells were incubated in the presence of compounds for 72 hours after which expression of firefly luciferase reporter gene was quantified. Briefly, culture medium was removed and cells were lysed by addition of 100 µl of lysis buffer containing 125 mM Tris Phosphate ph 7.8, 10 mM EDTA, 5 mM DTT, 50 % glycerol and 5 % Triton. Plates were vortexed 10 min at 1300 rpm. 100µl of luciferin solution 1X were added to each well. Luciferin solution contained 40 mM Tris Phosphate ph 7.8, 0.2 mM EDTA, 67 mM DTT, 2.14 mM MgCl2, 5.4 mM MgSO4, 4.7 x 10^-4 M luciferin, 5.3 x 10^-4 M ATP and 2.7 x 10^-4 M Acetyl co enzyme A. Luminescence was immediately measured with Berthold Microlumat Plus LB 96V luminometer with an integration of 1 sec. Inhibition was calculated using the formula: % inhibition = 1-[(RLUsample-RLUbackground)/(RLUsignal-RLUbackground)].
The Table 1 below illustrates data on the biological activity of compounds of the present invention. Results are expressed as EC50 which is the concentration that produces 50 % of replication inhibition. Table 1. HCV replication inhibition assay

Compound	pEC50
NC(=O)c1ccc(NC(=O)CC2C(=O)N(c3ccccc3)C(=S)N2CCc2ccc(Cl)cc2)cc1 (centres unmarked) [Example 40, 4-(2-{3-[2-(4-chlorophenyl)ethyl)-5-oxo-1-phenyl-2-sulfanylideneimidazolidin-4-yl}acetamido)benzamide]	> 5.30
COc1ccc(CCCCN2C(=S)N(c3ccc(F)cc3)C(=O)C2CC(=O)Nc2ccc(OC)cn2)cc1 (centres unmarked) [Example 93, 2-[1-(4-fluorophenyl)-3-[4-(4-methoxyphenyl)butyl]-5-oxo-2-sulfanylideneimidazolidin-4-yl]-N-(5-methoxypyridin-2-yl)acetamide]	> 6.30
O=C(CC1C(=O)N(c2ccc(F)cc2)C(=S)N1CCc1ccc(Cl)cc1)Nc1ccc(N2CCOCC2)cc1 (centres unmarked) [Example 41, 2-{3-[2-(4-chlorophenyl)ethyl]-1-(4-fluorophenyl)-5-oxo-2-sulfanylideneimidazolidin-4-yl}-N-[4-(morpholin-4-yl)phenyl]acetamide]	> 6.30
COc1ccc(NC(=O)CC2C(=O)N(c3ccc(F)cc3)C(=S)N2CCc2ccc(N3CCOCC3)cc2)cc1 (centres unmarked) [Example 52, 2-[1-(4-fluorophenyl)-3-{2-[4-(morpholin-4-yl)phenyl]ethyl}-5-oxo-2-sulfanylideneimidazolidin-4-yl]-N-(4-methoxyphenyl)acetamide]	> 6.30
COc1ccc(CCN2C(=O)N(c3ccc(F)cc3)C(=O)C2CC(=O)Nc2ccc(N(C)C)c(C)c2)cc1 (centres unmarked) [Example 44, N-[4-(dimethylamino)-3-methylphenyl]-2-[1-(4-fluorophenyl)-3-[2-(4-methoxyphenyl)ethyl]-2,5-dioxoimidazolidin-4-yl]acetamide]	> 4.52
COc1ccc(NC(=O)CC2C(=O)N(c3ccc(F)cc3)C(=S)N2CCc2cccs2)cc1 (centres unmarked) [Example 46, 2-[1-(4-fluorophenyl)-5-oxo-2-sulfanylidene-3-[2-(thiophen-2-yl)ethyl]imidazolidin-4-yl]-N-(4-methoxyphenyl)acetamide]	> 6.30
COc1ccc(CCN2C(=S)N(c3ccc(F)cc3)C(=O)C2CC(=O)Oc2ccc(OC)cc2)cc1 (centres unmarked) [Example 86, 4-methoxyphenyl 2-[1-(4-fluorophenyl)-3-[2-(4-methoxyphenyl)ethyl]-5-oxo-2-sulfanylideneimidazolidin-4-yl]acetate]	> 4.52
COCCN(C)c1ccc(NC(=O)CC2C(=O)N(c3ccc(F)cc3)C(=O)N2CCc2ccc(OC)cc2)cc1 (centres unmarked) [Example 43, 2-[1-(4-fluorophenyl)-3-[2-(4-methoxyphenyl)ethyl]-2,5-dioxoimidazolidin-4-yl]-N-{4-[(2-methoxyethyl)(methyl)amino]phenyl}acetamide]	> 5.30
COc1ccc(NC(=O)CC2C(=O)N(c3ccccc3)C(=S)N2CCc2ccc(Cl)cc2)cn1 (centres unmarked) [Example 59, 2-{3-[2-(4-chlorophenyl)ethyl]-5-oxo-1-phenyl-2-sulfanylideneimidazolidin-4-yl}-N-(6-methoxypyridin-3-yl)acetamide]	> 5.30
COc1ccc(CCN2C(=S)N(c3ccc(F)cc3)C(=O)C2CC(=O)Nc2ccc(OC(C)C)cc2)cc1 (centres unmarked) [Example 54, 2-[1-(4-fluorophenyl)-3-[2-(4-methoxyphenyl)ethyl]-5-oxo-2-sulfanylideneimidazolidin-4-yl]-N-[4-(propan-2-yloxy)phenyl]acetamide]	> 6.30
O=C(CC1C(=O)N(c2ccccc2)C(=S)N1CCc1ccc(Cl)cc1)Nc1ccon1 (centres unmarked) [Example 64, 2-{3-[2-(4-chlorophenyl)ethyl]-5-oxo-1-phenyl-2-sulfanylideneimidazolidin-4-yl}-N-(1,2-oxazol-3-yl)acetamide]	> 5.30
CN(C)c1ccc(NC(=O)CC2C(=O)N(c3ccc(F)cc3)C(=S)N2CCc2cccs2)cc1 (centres unmarked) [Example 48, N-[4-(dimethylamino)phenyl]-2-[1-(4-fluorophenyl)-5-oxo-2-sulfanylidene-3-[2-(thiophen-2-yl)ethyl]imidazolidin-4-yl]acetamide]	> 6.30
COc1ccc(CCCN2C(=S)N(c3ccc(F)cc3)C(=O)C2CC(=O)Nc2ccc(OC)cn2)cc1 (centres unmarked) [Example 92, 2-[1-(4-fluorophenyl)-3-[3-(4-methoxyphenyl)propyl]-5-oxo-2-sulfanylideneimidazolidin-4-yl]-N-(5-methoxypyridin-2-yl)acetamide]	> 6.30
O=C(CC1C(=O)N(c2ccccc2)C(=S)N1CCc1ccc(Cl)cc1)Nc1ccccn1 (centres unmarked) [Example 57, 2-{3-[2-(4-chlorophenyl)ethyl]-5-oxo-1-phenyl-2-sulfanylideneimidazolidin-4-yl}-N-(pyridin-2-yl)acetamide]	> 6.30
Cc1ccc(NC(=O)CC2C(=O)N(c3ccccc3)C(=S)N2CCc2ccc(Cl)cc2)cc1 (centres unmarked) [Example 37, 2-{3-[2-(4-chlorophenyl)ethyl]-5-oxo-1-phenyl-2-sulfanylideneimidazolidin-4-yl}-N-(4-methylphenyl)acetamide]	> 5.30

Same assay, conditions: Huh-7 cell lines containing HCV replicon Luc Neo ET; 72 hours with compound; 1 % DMSO; firefly luciferase reporter; concentration that produces 50 % of replication inhibition; read-out: EC50 Replicon LucneoET

Compound	pEC50
COC(=O)c1ccc(NC(=O)CC2C(=O)N(c3ccccc3)C(=S)N2CCc2ccc(Cl)cc2)cc1 (centres unmarked) [Example 25]	> 5.30
O=C(CC1C(=O)N(c2ccc(F)cc2)C(=S)N1CCc1ccc(Cl)cc1)Nc1ccccc1 (centres unmarked) [Example 8]	> 6.30
COc1ccc(NC(=O)CC2C(=O)N(c3ccc(F)cc3)C(=S)N2CCc2ccc(Cl)cc2)cc1 (centres unmarked) [Example 9]	> 6.30
COc1ccc(NC(=O)CC2C(=O)N(c3ccc(F)cc3)C(=O)N2CCc2cccs2)cc1 (centres unmarked) [Example 16]	> 5.30
CCOc1ccc(NC(=O)CC2C(=O)N(c3ccccc3)C(=S)N2CCc2ccccc2F)cc1 (centres unmarked) [Example 7]	> 6.30
COc1ccc(NC(=O)CC2C(=O)N(c3ccccc3)C(=O)N2CCC2=CCCCC2)cc1 (centres unmarked) [Example 12]	> 6.30
COc1ccc(/C=C/N2C(=S)N(c3ccc(F)cc3)C(=O)C2CC(=O)Nc2ccc(OC)cn2)cc1 (centres unmarked) [Example 95]	> 6.30
2-{3-[2-(4-chlorophenyl)ethyl]-4-hydroxy-5-oxo-1-phenyl-2-sulfanylideneimidazolidin-4-yl}-N-[4-(dimethylamino)phenyl]acetamide [Example 63]	> 6.30
CCCOc1ccc(NC(=O)CC2C(=O)N(c3ccccc3)C(=S)N2CCc2ccc(Cl)cc2)cc1 (centres unmarked) [Example 2]	> 6.30
O=C(CC1C(=O)N(c2ccc(Cl)cc2)C(=S)N1CCc1ccc(Cl)cc1)Nc1ccc(F)cc1 (centres unmarked) [Example 20]	> 4.52
O=C(CC1C(=O)N(c2ccccc2)C(=S)N1CCc1ccc(Cl)cc1)Nc1ccc(Cl)cc1 (centres unmarked) [Example 24]	> 5.30
COc1ccc(NC(=O)CC2C(=O)N(c3ccccc3)C(=S)N2CCc2ccc(OC)c(OC)c2)cc1 (centres unmarked) [Example 4]	> 5.30
2-{3-[2-(4-chlorophenyl)ethyl]-5-oxo-1-phenyl-2-sulfanylideneimidazolidin-4-yl}-N-(pyridin-3-ylmethyl)acetamide [Example 56]	> 5.30
CCCOc1ccc(NC(=O)CC2C(=O)N(c3ccccc3)C(=S)N2CCc2ccccc2)cc1 (centres unmarked) [Example 1]	> 6.30
CCOc1ccc(NC(=O)CC2C(=O)N(c3ccccc3)C(=O)N2CCC(C)C)cc1 (centres unmarked) [Example 15]	> 5.30
COc1ccc(CCN2C(=S)N(c3ccc(F)cc3)C(=O)C2CC(=O)Nc2c(F)cc(OC)cc2F)cc1 (centres unmarked) [Example 97]	> 6.30
CCOc1cccc(NC(=O)CC2C(=O)N(c3ccccc3)C(=S)N2CCc2ccc(F)cc2)c1 (centres unmarked) [Example 18]	> 5.30
